The values below come from patent publication US20250114356A1, “INDAZOLE BASED COMPOUNDS AND ASSOCIATED METHODS OF USE” (Arvinas Operations, Inc., priority 2020, published 2025).

Each structure is given as a SMILES string.

What all share (assay type): cell-based
The target of one test is T1, G2019S LRRK2 (Homo sapiens, UniProt Q5S007, G2019S).
T1 construct: expressed in transfected cells; host or cells: HEK293 (ATCC CRL-1573), transient transfection, ubiquitin promoter
The test can be described thus: LRRK2 degradation assay, G2019S LRRK2-HiBit expressed from plasmid in HEK293 cells. The conditions noted are these: HEK293 cells transfected with HiBit-tagged G2019S LRRK2, 24 hours compound incubation. The procedure, abridged: (§1)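 DC50 and Dmax derived from per-plate curve fits of LRRK2-HiBit signal over firefly luciferase (cell number/viability), as % of DMSO median, from 6 replicates across two days. Compound exposure was 24 hours at 37° C. in HEK293 cells transfected with wild-type or G2019S LRRK2 bearing a C-terminal HiBit tag.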

The next test addresses T2, wildtype LRRK2 (Homo sapiens, UniProt Q5S007).
T2 construct: expressed in transfected cells; host or cells: HEK293 (ATCC CRL-1573), transient transfection, ubiquitin promoter
The test can be described thus: LRRK2 degradation assay, wildtype LRRK2-HiBit expressed from plasmid in HEK293 cells. The conditions noted are these: HEK293 cells transfected with HiBit-tagged wildtype LRRK2, 24 hours compound incubation; for Dmax: read-out: **WT Dmax (%); for DC50: read-out: *WT DC50. The gist of the method:
as §1
For orientation: The HiBiT peptide binds its large partner to form an active luciferase.

For test [1], the target named is T3, LRRK2 (endogenous gene tagged with a HiBit sequence) (Homo sapiens, UniProt Q5S007).
T3 construct: endogenous in cells; host or cells: HEK293 with a HiBit knock-in at the endogenous LRRK2 locus, stably expressing firefly luciferase
T3 sequence (Q5S007 whole entry): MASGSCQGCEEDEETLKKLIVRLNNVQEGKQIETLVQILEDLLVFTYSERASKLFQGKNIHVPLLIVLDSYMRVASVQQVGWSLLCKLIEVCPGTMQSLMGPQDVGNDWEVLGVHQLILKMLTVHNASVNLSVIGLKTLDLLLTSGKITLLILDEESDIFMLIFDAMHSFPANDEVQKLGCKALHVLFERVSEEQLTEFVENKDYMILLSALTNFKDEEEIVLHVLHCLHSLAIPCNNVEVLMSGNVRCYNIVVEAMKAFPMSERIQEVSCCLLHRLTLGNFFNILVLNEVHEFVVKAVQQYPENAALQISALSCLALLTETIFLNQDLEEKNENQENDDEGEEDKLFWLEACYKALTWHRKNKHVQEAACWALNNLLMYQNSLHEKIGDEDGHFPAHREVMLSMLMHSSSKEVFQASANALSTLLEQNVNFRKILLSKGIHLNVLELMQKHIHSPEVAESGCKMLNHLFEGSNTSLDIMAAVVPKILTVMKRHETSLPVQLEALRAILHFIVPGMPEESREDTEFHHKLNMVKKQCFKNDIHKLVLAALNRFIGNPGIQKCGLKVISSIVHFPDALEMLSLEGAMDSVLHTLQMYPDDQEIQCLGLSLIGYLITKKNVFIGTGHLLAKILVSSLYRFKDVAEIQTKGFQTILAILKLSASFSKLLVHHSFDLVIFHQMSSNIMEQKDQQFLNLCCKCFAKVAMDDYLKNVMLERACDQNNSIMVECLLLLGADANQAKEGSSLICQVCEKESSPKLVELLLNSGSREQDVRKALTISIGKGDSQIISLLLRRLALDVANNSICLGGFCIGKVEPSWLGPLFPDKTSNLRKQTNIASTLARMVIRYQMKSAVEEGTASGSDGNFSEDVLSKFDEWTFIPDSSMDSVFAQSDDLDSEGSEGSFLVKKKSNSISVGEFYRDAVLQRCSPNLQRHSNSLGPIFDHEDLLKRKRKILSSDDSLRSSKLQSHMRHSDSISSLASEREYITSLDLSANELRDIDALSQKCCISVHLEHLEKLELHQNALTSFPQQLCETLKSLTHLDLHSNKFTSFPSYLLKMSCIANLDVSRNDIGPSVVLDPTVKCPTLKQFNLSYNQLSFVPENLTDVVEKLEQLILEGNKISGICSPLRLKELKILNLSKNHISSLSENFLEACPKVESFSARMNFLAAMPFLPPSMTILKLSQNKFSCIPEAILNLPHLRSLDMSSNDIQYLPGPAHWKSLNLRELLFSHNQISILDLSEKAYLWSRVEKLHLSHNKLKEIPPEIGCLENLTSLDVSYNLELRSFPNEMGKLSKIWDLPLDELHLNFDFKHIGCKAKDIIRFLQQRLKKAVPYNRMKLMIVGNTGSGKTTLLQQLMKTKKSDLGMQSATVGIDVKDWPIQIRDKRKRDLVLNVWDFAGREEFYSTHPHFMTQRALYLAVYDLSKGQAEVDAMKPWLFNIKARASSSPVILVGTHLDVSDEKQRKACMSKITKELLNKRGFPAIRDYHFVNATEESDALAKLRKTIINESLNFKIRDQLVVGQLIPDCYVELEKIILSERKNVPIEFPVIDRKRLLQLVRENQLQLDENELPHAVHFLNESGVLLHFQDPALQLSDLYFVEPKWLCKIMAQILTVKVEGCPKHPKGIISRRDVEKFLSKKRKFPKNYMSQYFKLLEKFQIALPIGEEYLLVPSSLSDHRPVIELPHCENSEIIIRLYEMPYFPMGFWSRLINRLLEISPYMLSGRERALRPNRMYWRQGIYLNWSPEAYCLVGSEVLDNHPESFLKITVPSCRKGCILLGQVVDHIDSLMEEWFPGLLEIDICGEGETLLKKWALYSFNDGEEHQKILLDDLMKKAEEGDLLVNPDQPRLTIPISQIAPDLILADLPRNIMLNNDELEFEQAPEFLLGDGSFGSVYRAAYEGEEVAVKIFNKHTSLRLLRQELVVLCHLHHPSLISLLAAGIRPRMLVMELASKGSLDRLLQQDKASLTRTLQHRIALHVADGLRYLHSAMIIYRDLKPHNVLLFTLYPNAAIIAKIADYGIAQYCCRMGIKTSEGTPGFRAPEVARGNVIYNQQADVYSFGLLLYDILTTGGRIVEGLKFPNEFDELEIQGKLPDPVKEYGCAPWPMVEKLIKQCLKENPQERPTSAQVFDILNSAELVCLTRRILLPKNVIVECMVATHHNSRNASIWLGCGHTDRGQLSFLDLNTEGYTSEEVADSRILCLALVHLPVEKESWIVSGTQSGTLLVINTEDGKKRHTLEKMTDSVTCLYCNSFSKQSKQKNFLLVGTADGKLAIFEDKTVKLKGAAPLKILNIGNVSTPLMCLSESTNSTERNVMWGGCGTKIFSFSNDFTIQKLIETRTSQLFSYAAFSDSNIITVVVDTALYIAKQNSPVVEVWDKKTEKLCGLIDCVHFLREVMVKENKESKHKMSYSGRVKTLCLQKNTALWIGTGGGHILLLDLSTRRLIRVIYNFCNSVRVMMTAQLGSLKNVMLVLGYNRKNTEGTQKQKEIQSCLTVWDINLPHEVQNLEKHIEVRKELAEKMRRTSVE
The test can be described thus: LRRK2 degradation assay, endogenous LRRK2 gene tagged with HiBit in HEK293 cells. The conditions noted are these: 24 hours compound incubation; for Dmax: read-out: **Endogenous WT Dmax (%); for DC50: read-out: *Endogenous WT DC50. How it is done: The assay measures the degradation of LRRK2 in cells where the C-terminus (3′) of the endogenous gene has been tagged with a HiBit sequence in HEK293 cells. The cells also express firefly lucisferase, expressed from a Cytomegalovirus promoter and introduced into the HiBit tagged cells and stably expressed. The Nano-Glo® Dual Luciferase Reporter Assay System (Promega™, Madison, WI) was utilized.
Day 1—Preparation of Compound and Assay Plates. Two sets of plates were prepared: a triplicate set for the HiBit assay in white 384-well plates and a triplicate set of plate in black 384-well plates for the Alamar Blue cell viability assay. Briefly, the growth media (DMEM+Glutamax-10% fetal bovine serum-1% Penicillin-Streptomicin) from two T128 flasks was aspirated from the flasks. Cells were washed with Dulbecco's Phosphate Buffered Saline (dPBS) and aspirated. Trypsin (3 mL per flask) was added and the flasks were incubated for 2-3 minutes.
Ten mL of OptiMEM-10% fetal bovine-1% penicillin-streptomycin (hereinafter, “OptiMEM media”) was added to the flask and the cells and transferred to a 50 mL conical tube. A cell count (25 ul of cell into Effendorf vial+25 ul of Trypan Blue Stain) was performed and the cell density adjusted to 15,000 cell/45 μl/well (3.33×10^5/mL) in OptiMEM media.
Forty-five microliters of the cell suspension (15,000 cells) was aliquoted to each well of the white 384-well plate. The plates incubated at room temperature for 10 minutes before being placed in the 37° C.+5% CO2 incubator overnight
Day 2—Compound Treatment. Exemplary compounds were prepared at a 1 mM starting concentration and 1:3 serial dilution for 11 points CRC prepared and stored in the freezer. The Master Compound Plate was thawed overnight at room temperature. DMSO (20 μL) was added into column 24 of the Master Compound Plate for negative control and 20 μL of 300 μM of Exemplary Compound 4 in column 23 as positive control.
Intermediate Compound Plate with 4% DMSO in OptiMEM Media. DMSO was added to warm OptiMEM media to achieve a 4% DMSO solution (approximately 50 mL/plate). One-hundred microliters of the OptiMEM-4% DMSO was aliquoted to each well of 384-Well Deep Well Microplates.
The Master Compound Plate and the Intermediate Compound Plate were spun down.
One microliter of compound from the Master Compound Plate was transferred into the Intermediate plate (a 1:100 dilution). […]
Day 3—HiBit Assay. […] Fluorescence of each plate was read on a plated reader for the Alamar Blue viability assay. […]
The One Glo luciferase mixture was prepared. […] The luminescence of each plate was read on a plate reader.
1:100 DLR substrate and 1:100 LgBiT Protein dilution were added to the Promega Stop and Glo buffer and mixed just before addition to assay plates. […] The luminescence of each plate was read on a plate reader. […]

T1 sequence (Q5S007 whole entry G2019S): as the sequence (Q5S007 whole entry) above, with G2019S counted along it
T2 sequence (Q5S007 whole entry): as the sequence (Q5S007 whole entry) above

One may read the DC50 as the midpoint of the concentration-degradation curve. In general, Dmax refers to the largest share of the target that was removed. Regarding `C[C@H]1CN(c2cc(-c3n[nH]c4ccc(OC5(C)CC5)cc34)ncn2)CCN1CC1CCN(CC2CCN(c3ccc4c(c3)C(=O)N(C3CCC(=O)NC3=O)C4=O)CC2)CC1` (stereo partly drawn) [compound 24, 2-(2,6-dioxopiperidin-3-yl)-5-{4-[(4-{[(2S)-2-methyl-4-{6-[5-(1-methylcyclopropoxy)-1H-indazol-3-yl]pyrimidin-4-yl}piperazin-1-yl]methyl}piperidin-1-yl)methyl]piperidin-1-yl}-2,3-dihydro-1H-isoindole-1,3-dione], the DC50 (on G2019S LRRK2; on wildtype LRRK2; in test [1]) was less than 10 nM each time. Besides, the values for the Dmax (at G2019S LRRK2; at wildtype LRRK2; in test [1]) were no less than 70%, 50 to 70% and 50 to 70%, respectively.

In the case of `C[C@H]1CN(c2cc(-c3n[nH]c4ccc(OC5(C)CC5)cc34)ncn2)CCN1CCOCCOCCOCCOc1ccc2c(c1)C(=O)N(C1CCC(=O)NC1=O)C2=O` (stereo partly drawn) [compound 4, 2-(2,6-dioxopiperidin-3-yl)-5-{2-[2-(2-{2-[(2S)-2-methyl-4-{6-[5-(1-methylcyclopropoxy)-1H-indazol-3-yl]pyrimidin-4-yl}piperazin-1-yl]ethoxy}ethoxy)ethoxy]ethoxy}-2,3-dihydro-1H-isoindole-1,3-dione], the DC50 on G2019S LRRK2 was 10 to 50 nM; on wildtype LRRK2, less than 10 nM; in test [1], less than 10 nM. For the same compound, the Dmax (at G2019S LRRK2; at wildtype LRRK2; in test [1]) was 50 to 70% throughout.

Regarding `CC(C)Oc1ccc2[nH]nc(-c3cc(N4CCO[C@@H](CCN5CCN(CC6CCN(c7ccc8c(c7)C(=O)N(C7CCC(=O)NC7=O)C8=O)CC6)CC5)C4)ncn3)c2c1` (stereo partly drawn) [compound 49, 2-(2,6-dioxopiperidin-3-yl)-5-(4-((4-(2-((S)-4-(6-(5-isopropoxy-1H-indazol-3-yl)pyrimidin-4-yl)morpholin-2-yl)ethyl)piperazin-1-yl)methyl)piperidin-1-yl)isoindoline-1,3-dione], at G2019S LRRK2, the DC50 is less than 10 nM and the Dmax was in the range of 50 to 70%. Further, at wildtype LRRK2, the greatest degradation seen (Dmax) was no less than 70% and the DC50 is less than 10 nM.

On G2019S LRRK2, `CC(C)Oc1ccc2[nH]nc(-c3cc(N4CCN(CCOCCC#CCN5CCN(c6ccc7c(c6)C(=O)N(C6CCC(=O)NC6=O)C7=O)CC5)[C@@H](C)C4)ncn3)c2c1` (stereo partly drawn) [compound 34, 2-(2,6-dioxopiperidin-3-yl)-5-[4-(5-{2-[(2S)-2-methyl-4-{6-[5-(propan-2-yloxy)-1H-indazol-3-yl]pyrimidin-4-yl}piperazin-1-yl]ethoxy}pent-2-yn-1-yl)piperazin-1-yl]-2,3-dihydro-1H-isoindole-1,3-dione] showed a DC50 of no less than 100 nM and a Dmax of 50 to 70%. Moreover, on wildtype LRRK2, the Dmax is no less than 70% and the DC50 was 50 to 100 nM.
